Columns and labels:
[1] = target: Dipeptidyl peptidase 8 (Homo sapiens, UniProt Q6V1X1)
[2] = target: T1, Dipeptidyl peptidase 9 (Homo sapiens, UniProt Q86TI2); assay: Inhibition of DPP9
Target sequence in this assay (Q86TI2 whole entry): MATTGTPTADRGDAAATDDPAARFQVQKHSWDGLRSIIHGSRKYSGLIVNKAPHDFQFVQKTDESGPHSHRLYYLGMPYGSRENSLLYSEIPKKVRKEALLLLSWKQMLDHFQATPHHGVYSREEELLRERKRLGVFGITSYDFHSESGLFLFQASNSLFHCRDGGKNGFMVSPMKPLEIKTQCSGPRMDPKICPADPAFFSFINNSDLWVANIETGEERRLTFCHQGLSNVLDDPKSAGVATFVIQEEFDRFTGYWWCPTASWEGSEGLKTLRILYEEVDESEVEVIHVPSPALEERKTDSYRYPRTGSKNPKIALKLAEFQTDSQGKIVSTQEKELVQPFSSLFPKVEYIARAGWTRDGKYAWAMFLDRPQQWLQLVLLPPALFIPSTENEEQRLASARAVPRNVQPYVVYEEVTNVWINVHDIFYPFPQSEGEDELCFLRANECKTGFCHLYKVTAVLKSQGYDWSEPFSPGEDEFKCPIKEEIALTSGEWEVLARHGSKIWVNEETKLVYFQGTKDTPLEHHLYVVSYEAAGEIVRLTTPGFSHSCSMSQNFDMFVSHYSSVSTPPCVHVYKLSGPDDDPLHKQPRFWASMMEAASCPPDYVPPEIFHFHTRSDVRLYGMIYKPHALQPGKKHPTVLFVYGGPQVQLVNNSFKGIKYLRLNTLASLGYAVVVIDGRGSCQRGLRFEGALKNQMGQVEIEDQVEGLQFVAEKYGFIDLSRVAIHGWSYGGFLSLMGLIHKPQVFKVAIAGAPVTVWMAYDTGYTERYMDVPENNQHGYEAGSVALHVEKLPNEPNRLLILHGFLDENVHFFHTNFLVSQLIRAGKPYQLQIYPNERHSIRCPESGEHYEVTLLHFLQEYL

[3] = target: T2, Dipeptidyl peptidase 4 (Homo sapiens, UniProt P27487)
[4] = species: Rattus norvegicus; assay: animal or person; settings: Plasma, po, 0.5 h, read-out: INH
[5] = species: Rattus norvegicus; assay: animal or person; settings: Plasma, po, 8 h, read-out: INH
[6] = target: T2, Dipeptidyl peptidase 4; remark: listed apart in the source
[7] = target: T1, Dipeptidyl peptidase 9; assay: Inhibition of DPP9 at 20 uM
Target sequence in this assay (Q86TI2 2-863 limits assumed): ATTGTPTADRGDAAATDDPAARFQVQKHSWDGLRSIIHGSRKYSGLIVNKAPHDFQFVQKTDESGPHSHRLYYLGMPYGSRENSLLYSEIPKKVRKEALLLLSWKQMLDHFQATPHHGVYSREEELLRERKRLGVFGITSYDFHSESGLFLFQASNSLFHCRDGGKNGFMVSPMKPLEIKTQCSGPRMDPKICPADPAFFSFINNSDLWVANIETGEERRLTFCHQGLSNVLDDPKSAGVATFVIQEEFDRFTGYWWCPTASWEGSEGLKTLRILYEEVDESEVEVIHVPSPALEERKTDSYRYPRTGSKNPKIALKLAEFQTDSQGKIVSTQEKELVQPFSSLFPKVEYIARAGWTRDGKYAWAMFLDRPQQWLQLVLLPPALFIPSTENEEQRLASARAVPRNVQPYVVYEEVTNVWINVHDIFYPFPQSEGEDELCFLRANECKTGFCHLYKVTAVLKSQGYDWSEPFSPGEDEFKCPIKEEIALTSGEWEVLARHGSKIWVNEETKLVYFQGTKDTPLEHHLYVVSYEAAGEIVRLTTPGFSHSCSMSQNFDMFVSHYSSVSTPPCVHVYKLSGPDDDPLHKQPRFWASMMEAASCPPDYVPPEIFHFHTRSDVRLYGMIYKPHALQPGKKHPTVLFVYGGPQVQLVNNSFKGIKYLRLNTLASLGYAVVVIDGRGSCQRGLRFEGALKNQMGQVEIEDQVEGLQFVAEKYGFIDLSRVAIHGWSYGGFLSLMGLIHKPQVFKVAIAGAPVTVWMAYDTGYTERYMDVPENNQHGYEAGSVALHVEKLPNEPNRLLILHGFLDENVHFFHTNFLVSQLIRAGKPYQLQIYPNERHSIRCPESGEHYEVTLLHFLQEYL

[8] = target: T2, Dipeptidyl peptidase 4; remark: listed apart in the source
[9] = species: Mus musculus; assay: animal or person; settings: Plasma, po, 4 h, read-out: INH
[10] = target: T3, Prolyl endopeptidase FAP (Homo sapiens, UniProt Q12884); assay: Inhibition of FAP
T3 sequence (Q12884 whole entry): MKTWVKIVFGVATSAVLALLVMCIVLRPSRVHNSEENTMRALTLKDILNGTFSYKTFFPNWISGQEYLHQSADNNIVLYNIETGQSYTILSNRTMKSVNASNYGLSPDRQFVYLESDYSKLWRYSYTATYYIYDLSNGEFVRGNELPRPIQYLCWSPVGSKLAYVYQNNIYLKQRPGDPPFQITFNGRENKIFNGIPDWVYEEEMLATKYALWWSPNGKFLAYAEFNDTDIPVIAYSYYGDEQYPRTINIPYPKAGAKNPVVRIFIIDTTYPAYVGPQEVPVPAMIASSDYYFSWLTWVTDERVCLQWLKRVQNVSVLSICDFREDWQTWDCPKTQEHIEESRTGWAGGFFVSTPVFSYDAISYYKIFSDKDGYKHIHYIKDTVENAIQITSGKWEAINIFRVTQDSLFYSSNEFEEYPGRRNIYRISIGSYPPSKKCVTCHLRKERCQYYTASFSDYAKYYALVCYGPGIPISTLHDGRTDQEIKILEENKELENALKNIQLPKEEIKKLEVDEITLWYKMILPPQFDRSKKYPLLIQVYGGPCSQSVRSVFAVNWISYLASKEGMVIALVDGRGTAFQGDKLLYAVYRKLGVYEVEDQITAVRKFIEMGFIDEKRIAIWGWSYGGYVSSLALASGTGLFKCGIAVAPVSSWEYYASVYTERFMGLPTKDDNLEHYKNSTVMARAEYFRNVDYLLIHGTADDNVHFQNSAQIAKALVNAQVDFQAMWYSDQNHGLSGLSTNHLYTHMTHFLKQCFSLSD

[11] = target: Dipeptidyl peptidase 2 (Homo sapiens, UniProt Q9UHL4); assay: Inhibition of DPP2
[12] = target: Beta-secretase 1 (Homo sapiens) (UniProt P56817); assay: Inhibition of beta secretase at 10 uM
Sequence of Beta-secretase 1 (Homo sapiens) (P56817 whole entry): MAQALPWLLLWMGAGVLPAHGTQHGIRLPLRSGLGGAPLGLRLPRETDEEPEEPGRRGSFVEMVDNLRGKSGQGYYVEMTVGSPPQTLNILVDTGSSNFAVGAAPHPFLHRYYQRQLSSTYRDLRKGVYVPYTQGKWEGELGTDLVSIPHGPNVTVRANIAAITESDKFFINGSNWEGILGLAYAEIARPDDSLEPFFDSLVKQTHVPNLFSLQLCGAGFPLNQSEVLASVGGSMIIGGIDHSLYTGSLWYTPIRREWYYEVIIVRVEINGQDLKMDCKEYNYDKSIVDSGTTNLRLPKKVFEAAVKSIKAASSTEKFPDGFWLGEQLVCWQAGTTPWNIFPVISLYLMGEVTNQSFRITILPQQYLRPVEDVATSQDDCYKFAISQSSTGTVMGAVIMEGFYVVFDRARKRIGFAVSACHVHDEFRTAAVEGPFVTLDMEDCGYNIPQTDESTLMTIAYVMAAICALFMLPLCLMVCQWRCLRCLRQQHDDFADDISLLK

[13] = Inhibition of L-type calcium channel; settings: concentration not given here
[14] = target: Voltage-gated inwardly rectifying potassium channel KCNH2 (Homo sapiens, UniProt Q12809); assay: Inhibition of human ERG
Sequence of Voltage-gated inwardly rectifying potassium channel KCNH2 (Q12809 whole entry): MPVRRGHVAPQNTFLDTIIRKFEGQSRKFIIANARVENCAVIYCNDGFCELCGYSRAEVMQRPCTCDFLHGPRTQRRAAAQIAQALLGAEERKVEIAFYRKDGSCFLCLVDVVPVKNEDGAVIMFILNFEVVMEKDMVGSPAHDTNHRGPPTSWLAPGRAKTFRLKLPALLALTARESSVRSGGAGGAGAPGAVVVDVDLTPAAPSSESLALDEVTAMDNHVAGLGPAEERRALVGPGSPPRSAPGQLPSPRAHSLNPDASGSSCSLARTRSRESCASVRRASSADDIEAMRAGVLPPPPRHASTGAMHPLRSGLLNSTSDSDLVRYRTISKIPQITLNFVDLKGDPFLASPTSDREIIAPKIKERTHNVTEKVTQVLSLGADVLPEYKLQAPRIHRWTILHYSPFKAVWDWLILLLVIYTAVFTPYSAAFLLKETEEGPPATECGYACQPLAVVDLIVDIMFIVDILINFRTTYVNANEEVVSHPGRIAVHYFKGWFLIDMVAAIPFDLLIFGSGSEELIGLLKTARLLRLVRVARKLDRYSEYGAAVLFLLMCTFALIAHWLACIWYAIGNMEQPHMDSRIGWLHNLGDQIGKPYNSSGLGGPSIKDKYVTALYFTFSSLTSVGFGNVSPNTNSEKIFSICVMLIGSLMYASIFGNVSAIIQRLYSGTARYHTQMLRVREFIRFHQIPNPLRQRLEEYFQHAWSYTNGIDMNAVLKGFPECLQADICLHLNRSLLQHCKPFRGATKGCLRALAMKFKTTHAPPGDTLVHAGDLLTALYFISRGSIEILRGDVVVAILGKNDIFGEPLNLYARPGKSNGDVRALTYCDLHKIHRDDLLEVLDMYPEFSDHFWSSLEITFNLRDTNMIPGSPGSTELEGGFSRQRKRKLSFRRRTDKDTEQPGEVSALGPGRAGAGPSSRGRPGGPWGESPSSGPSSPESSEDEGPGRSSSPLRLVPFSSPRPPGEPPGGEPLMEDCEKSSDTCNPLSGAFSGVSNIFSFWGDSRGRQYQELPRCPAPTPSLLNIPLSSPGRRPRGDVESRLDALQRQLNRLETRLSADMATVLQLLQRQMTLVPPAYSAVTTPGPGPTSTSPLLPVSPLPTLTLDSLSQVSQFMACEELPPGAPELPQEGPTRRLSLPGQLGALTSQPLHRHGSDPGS

[15] = target: T4, Caspase-1 (Homo sapiens) (UniProt P29466); assay: Inhibition of caspase1 at 10 uM
T4 sequence (whole entry): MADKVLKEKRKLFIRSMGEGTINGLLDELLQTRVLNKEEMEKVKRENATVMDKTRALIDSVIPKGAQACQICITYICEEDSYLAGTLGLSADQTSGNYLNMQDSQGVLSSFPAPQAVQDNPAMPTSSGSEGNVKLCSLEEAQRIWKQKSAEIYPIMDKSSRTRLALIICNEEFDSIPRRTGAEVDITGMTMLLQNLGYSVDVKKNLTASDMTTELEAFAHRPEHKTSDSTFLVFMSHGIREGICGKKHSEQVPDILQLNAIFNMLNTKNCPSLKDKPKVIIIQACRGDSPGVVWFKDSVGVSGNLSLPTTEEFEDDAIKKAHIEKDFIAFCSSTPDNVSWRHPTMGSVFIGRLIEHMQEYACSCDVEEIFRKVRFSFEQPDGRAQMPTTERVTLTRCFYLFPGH

[16] = Inhibition of sodium channel site 2; settings: concentration not given here
[17] = Oral bioavailability in rat; type: ADME, organism-based; settings: in vivo
[18] = target: T5, Caspase-10 (Homo sapiens) (UniProt Q92851); assay: Inhibition of caspase 10 at 10 uM
T5 sequence (whole entry): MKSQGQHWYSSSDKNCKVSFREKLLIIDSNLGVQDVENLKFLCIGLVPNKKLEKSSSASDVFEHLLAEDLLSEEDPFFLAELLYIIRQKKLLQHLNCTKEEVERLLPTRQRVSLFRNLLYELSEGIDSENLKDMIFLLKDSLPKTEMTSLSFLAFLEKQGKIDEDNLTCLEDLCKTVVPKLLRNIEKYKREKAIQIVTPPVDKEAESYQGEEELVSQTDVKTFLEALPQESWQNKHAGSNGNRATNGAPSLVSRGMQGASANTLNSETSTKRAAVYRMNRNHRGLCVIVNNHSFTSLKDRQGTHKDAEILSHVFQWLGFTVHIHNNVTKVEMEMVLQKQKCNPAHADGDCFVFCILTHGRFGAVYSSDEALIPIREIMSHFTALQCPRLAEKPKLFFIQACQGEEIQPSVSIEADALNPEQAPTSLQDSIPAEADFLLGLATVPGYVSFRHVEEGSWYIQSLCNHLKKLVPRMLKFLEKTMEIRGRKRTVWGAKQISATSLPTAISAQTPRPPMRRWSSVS

[19] = target: Prothrombin (Homo sapiens) (UniProt P00734); assay: Inhibition of thrombin at 10 uM
[20] = target: Cathepsin B (Homo sapiens) (UniProt P07858); assay: Inhibition of cathepsin B at 10 uM
[21] = target: Coagulation factor X (Homo sapiens) (UniProt P00742); assay: Inhibition of factor 10a at 10 uM
[22] = target: T6, Pro-cathepsin H (Homo sapiens) (UniProt P09668); assay: Inhibition of cathepsin H at 10 uM
T6 sequence (whole entry): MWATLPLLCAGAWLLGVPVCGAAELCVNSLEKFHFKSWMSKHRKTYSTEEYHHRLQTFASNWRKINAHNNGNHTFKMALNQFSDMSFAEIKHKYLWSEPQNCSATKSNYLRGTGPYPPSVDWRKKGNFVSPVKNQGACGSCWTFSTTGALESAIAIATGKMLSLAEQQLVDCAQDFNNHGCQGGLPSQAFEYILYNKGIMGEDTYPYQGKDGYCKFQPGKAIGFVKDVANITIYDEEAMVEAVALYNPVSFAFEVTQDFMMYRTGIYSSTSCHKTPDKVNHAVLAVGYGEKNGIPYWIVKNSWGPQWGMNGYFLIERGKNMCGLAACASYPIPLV

[23] = system: Mus musculus; assay: Antihyperglycemic activity in C57BL/6J mouse assessed as reduction in blood glucose AUC at 3 mg/kg, po administered 30 mins before glucose challenge; type: functional; design: scale not given: the % may be the effect or the level left
[24] = Oral bioavailability in dog; type: ADME, organism-based, Canis lupus familiaris; settings: in vivo
[25] = Inhibition of trypsin at 10 uM

Sequence of Dipeptidyl peptidase 8 (Q6V1X1 whole entry): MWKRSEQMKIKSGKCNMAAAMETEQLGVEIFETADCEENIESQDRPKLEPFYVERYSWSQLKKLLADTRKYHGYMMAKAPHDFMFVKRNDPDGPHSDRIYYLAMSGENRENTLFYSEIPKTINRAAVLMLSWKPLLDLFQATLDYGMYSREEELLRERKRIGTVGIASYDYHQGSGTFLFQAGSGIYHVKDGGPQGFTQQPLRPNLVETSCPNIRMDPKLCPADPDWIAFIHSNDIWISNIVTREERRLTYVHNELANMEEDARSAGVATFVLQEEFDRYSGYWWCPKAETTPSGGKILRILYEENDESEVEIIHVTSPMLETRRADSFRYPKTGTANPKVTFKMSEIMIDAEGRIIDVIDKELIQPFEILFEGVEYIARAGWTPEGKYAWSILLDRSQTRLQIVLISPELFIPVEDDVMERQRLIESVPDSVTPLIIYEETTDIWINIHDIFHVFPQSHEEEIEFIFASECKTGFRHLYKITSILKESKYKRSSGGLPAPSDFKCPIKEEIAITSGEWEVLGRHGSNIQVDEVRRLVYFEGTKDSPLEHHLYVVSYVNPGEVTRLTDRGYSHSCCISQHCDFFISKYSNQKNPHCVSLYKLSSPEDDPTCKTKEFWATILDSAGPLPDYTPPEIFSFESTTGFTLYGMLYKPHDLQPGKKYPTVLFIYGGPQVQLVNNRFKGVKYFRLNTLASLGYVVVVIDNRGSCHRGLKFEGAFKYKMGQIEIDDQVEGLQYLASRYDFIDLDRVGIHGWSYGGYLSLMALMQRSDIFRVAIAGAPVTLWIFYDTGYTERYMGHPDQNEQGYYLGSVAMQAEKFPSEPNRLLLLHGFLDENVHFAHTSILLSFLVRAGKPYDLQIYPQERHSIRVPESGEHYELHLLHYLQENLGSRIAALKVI
T2 sequence (P27487 whole entry): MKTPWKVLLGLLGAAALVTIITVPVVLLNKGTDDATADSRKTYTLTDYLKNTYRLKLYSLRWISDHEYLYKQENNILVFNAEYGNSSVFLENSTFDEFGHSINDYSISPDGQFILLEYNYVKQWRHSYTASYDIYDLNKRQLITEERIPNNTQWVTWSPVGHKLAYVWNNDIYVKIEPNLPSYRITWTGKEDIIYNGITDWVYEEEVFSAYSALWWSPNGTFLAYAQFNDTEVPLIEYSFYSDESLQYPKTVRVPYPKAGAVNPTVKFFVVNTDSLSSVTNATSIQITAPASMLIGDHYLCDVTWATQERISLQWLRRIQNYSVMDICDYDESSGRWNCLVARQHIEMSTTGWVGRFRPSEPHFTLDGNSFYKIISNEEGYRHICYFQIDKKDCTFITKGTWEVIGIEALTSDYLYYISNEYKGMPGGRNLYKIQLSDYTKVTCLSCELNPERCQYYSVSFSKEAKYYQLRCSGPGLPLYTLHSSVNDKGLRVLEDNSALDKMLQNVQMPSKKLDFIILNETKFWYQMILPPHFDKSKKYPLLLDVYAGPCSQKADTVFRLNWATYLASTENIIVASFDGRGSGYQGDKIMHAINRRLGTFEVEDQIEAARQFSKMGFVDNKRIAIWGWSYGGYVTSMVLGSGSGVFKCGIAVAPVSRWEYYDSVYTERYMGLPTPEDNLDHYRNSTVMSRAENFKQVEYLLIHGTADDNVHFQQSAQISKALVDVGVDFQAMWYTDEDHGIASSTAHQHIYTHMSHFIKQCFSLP

| Structure (SMILES) | IC50 [1] [µM] | IC50 [2] [µM] | IC50 [3] [nM] | inhibition in vivo at 3 mg/kg [4] [%] | inhibition in vivo at 3 mg/kg [5] [%] | further results |
| --- | --- | --- | --- | --- | --- | --- |
| CC(C)(CC(=O)N1CCSC1)NCC(=O)N1C[C@@H](F)C[C@H]1C#N | > 20 | > 20 | 27 | 77 | 56 | – |
| CC(C)(CC(=O)N1CC[C@H](O)C1)NCC(=O)N1C[C@@H](F)C[C@H]1C#N | > 20 | > 20 | 50 | – | – | – |
| CC(C)(CC(=O)NC1CCCC1)NCC(=O)N1C[C@@H](F)C[C@H]1C#N | > 20 | > 20 | 29 | 81 | 60 | – |
| N#C[C@@H]1CCCN1C(=O)CNC12CC3CC(CC(O)(C3)C1)C2 [VILDAGLIPTIN] | – | – | – | 84 | 73 | – |
| CC(C)(CC(=O)N1CCN(S(C)(=O)=O)CC1)NCC(=O)N1C[C@@H](F)C[C@H]1C#N | > 20 | > 20 | 24 | 64 | 7 | IC50 [6]: 15 nM |
| COc1ccc(NC(=O)CC(C)(C)NCC(=O)N2C[C@@H](F)C[C@H]2C#N)nc1 | > 20 | – | 19 | 88 | 41 | inhibition [7]: 61%; IC50 [6]: 18 nM |
| CC(C)(CC(=O)Nc1ccccn1)NCC(=O)N1C[C@@H](F)C[C@H]1C#N | > 20 | > 20 | 19 | 87 | 31 | IC50 [8]: 24 nM; IC50 [6]: 19 nM |
| C[C@@H]1CCCN1C(=O)CC(C)(C)NCC(=O)N1C[C@@H](F)C[C@H]1C#N | > 20 | > 20 | 32 | 75 | 48 | – |
| CC(C)(CC(=O)N1Cc2ccccc2C1)NCC(=O)N1CCC[C@H]1C#N | – | > 100 | – | – | – | inhibition in vivo at 18 mg/kg [9]: > 80% |
| C#C[C@@H]1C[C@H](F)CN1C(=O)CC(C)(C)CC(=O)N[C@H]1C[C@@H]1c1cccc(Cl)c1 | > 20 | – | 15 | 66 | 30 | IC50 [10]: > 20 µM; inhibition [7]: 72%; IC50 [11]: > 100 µM; IC50 [8]: 210 nM; IC50 [6]: 847 nM |
| COc1ccc(NC(=O)CC(C)(C)NCC(=O)N2CCC[C@H]2C#N)cc1OC | > 50 | > 20 | – | – | – | IC50 [10]: > 50 µM; IC50 [11]: > 20 µM |
| CC(C)(CC(=O)N1CC[C@@H](O)C1)NCC(=O)N1C[C@@H](F)C[C@H]1C#N | > 20 | > 20 | 30 | 63 | 15 | IC50 [8]: 23 nM; IC50 [6]: 21 nM |
| CC(C)(CC(=O)N1CCOCC1)NCC(=O)N1C[C@@H](F)C[C@H]1C#N | > 20 | > 20 | 20 | 89 | 59 | IC50 [8]: 14 nM; IC50 [6]: 13 nM |
| CC(C)(CC(=O)N1C2CCC1CC2)NCC(=O)N1C[C@@H](F)C[C@H]1C#N | > 20 | > 20 | 66 | – | – | – |
| CC(C)(CC(=O)N1CCC[C@H]1CO)NCC(=O)N1C[C@@H](F)C[C@H]1C#N | > 20 | > 20 | 24 | – | – | – |
| CN1CCN(C(=O)CC(C)(C)NCC(=O)N2C[C@@H](F)C[C@H]2C#N)CC1 | > 20 | – | 93 | – | – | inhibition [7]: 86% |
| CC(C)(CC(=O)N1CCCCC1)NCC(=O)N1C[C@@H](F)C[C@H]1C#N | > 20 | > 20 | 27 | 86 | 74 | IC50 [6]: 14 nM |
| CC(C)(CC(=O)N1CCCC1)NCC(=O)N1CCC[C@H]1C#N | > 20 | > 20 | – | – | – | – |
| CC(C)(CC(=O)N1CC=CCC1)NCC(=O)N1C[C@@H](F)C[C@H]1C#N | > 20 | – | 18 | 85 | 70 | inhibition [7]: 50% |
| CC(C)(CC(=O)N1CCC(=O)CC1)NCC(=O)N1C[C@@H](F)C[C@H]1C#N | > 20 | > 20 | 26 | – | – | – |
| CC(C)(CC(=O)N1CCCC1)NCC(=O)N1C[C@@H](F)C[C@H]1C#N [DBPR-108] | > 100 | > 50 | 15 | 82 | 70 | inhibition [12]: 3%; inhibition [13]: -9%; inhibition (INH) [14]: -6%; inhibition [15]: 23%; inhibition [16]: 1%; bioavailability [17]: 19%; IC50 [8]: 10 nM; inhibition [18]: 8%; IC50 [6]: 5 nM; inhibition [19]: -7%; inhibition [20]: -10%; inhibition [21]: 2%; inhibition [22]: 0%; Activity [23]: 67%; bioavailability [24]: 68%; inhibition [25]: 0% |
| COc1ccc(NC(=O)CC(C)(C)NCC(=O)N2C[C@@H](F)C[C@H]2C#N)cc1OC | > 20 | – | 27 | 86 | 18 | inhibition [7]: 73% |
| N[C@@H](CC(=O)N1CCn2c(nnc2C(F)(F)F)C1)Cc1cc(F)c(F)cc1F [SITAGLIPTIN] | – | – | – | 30 | 20 | – |
| CC(C)(CC(=O)N1CC[C@@H](F)C1)NCC(=O)N1C[C@@H](F)C[C@H]1C#N | > 20 | > 20 | – | – | – | – |
| CC(C)(CC(=O)N1CC[C@@H](O)C1)NCC(=O)N1CCC[C@H]1C#N | > 20 | > 20 | 180 | – | – | – |
| CCOC(=O)N1CCN(C(=O)CC(C)(C)NCC(=O)N2C[C@@H](F)C[C@H]2C#N)CC1 | > 20 | > 20 | 63 | – | – | – |
| CC(C)(CC(=O)N1CCCCCC1)NCC(=O)N1C[C@@H](F)C[C@H]1C#N | > 20 | > 20 | 160 | – | – | – |
